# System: mice subjected to UCMS
# Test: TST in unpredictable chronic mild stress (UCMS) model
# Format: in vivo
# Details: UCMS mice (4 weeks); injection day 29, TST 30 min after; vs vehicle; FIG. 3B
# Description: TST was performed 30 min after injection time. To perform the TST, the tails of the mice were wrapped with tape that covered approximately 4/5 of the tail length and then fixed upside down on a hook. The immobility time of each mouse was recorded and tracked over a 6 min period. The Porsolt FST was conducted using vertical clear glass cylinder (10 cm in diameter, 25 cm in height) filled with water (25° C.). The mice spent 6 min in the water and immobility was scored from 2 to 6 min. A mouse was regarded as immobile when floating motionless or making only those movements necessary to keep its head above the water.
# This study investigated the effects of ClonBac in a mouse model of unpredictable chronic mild stress (0). For the UCMS paradigm, mice were housed in individual cages and were subjected to 4 weeks of stressors, with two stressors applied within a 24 hr period. Stressors were applied pseudo-randomly and included: intermittent bell (10 db, 1/10 s), continuous white noise for 4 h, rat odor, 45° cage tilt for 4 h, 30 minute cage shaking, soiled bedding for 8 hr, paired housing with a new partner for 2 h, overnight illumination, removal of nesting material for 12 hr, placement of a novel object in home cage for 3 h, and physical restraint for 1 h. Stressors continued to be applied during the behavioral testing phase. […]
compound,measurement,value
"NCC(CC(=O)O)c1ccc(Cl)cc1 (stereo not drawn) [baclofen, β-(4-chlorophenyl)-γ-aminobutyric acid]",TST immobility time,significantly attenuated immobility TST time
